The target of one assay is CDK2/Cyclin E1 (Homo sapiens, UniProt P24941). As to the kind of experiment: ADP-Glo Luminescent Kinase Assay (CDK2/E1-37C). Format: biochemical. To be noted: 0.18 nM CDK2/Cyclin E1, 100 μM ATP, 1.5 μM Histone H1, 37° C., 60 min pre-incubation; read-out: ADPGLO (CDK2/E1-37C): IC50. The method, then: Inhibition of CDK2/Cyclin E1 activity by the presence of small molecules was evaluated using ADP-Glo Luminescent Kinase Assay (Promega). Activated CDK2/Cyclin E1 was incubated with its substrate Histone H1 (SignalChem H10-54N) in the kinase reaction buffer (100 μM ATP, 50 mM HEPES pH 7.5, 10 mM MgCl2, 1 mM EDTA, 2 mM DTT, 0.01% Brij35, 0.5 mg/mL BSA). Luminescence was recorded with an Envision plate reader (PerkinElmer).
Dose titrations of inhibitors in 100% DMSO were combined with 0.36 nM CDK2/Cyclin E1 in reaction buffer. The mixtures were incubated for 60 minutes at 37° C. before the addition of ATP and Histone H1 substrate to initiate the kinase reaction. The final conditions were 0.18 nM CDK2/Cyclin E1, 100 μM ATP, and 1.5 μM Histone H1. The reactions were incubated at 37° C. for 90 minutes before being stopped with the addition of ADP-Glo reagent. This mixture was incubated at room temperature for 60 minutes before Kinase Detection Solution is added to generate luminescence. The stopped reactions were analyzed on an Envision plate reader. The conversion ratios were normalized to yield % activity, plotted against compound concentration, and fit to a four-parameter equation to determine the IC50 for each compound.

A further assay has as its system Kuramochi cells. Briefly: IncuCyte cell proliferation assay. The format is cell-based. To be noted: Kuramochi cells labeled with mApple-H2B, cell count 0 to 72 hours, 20 μM top concentration; read-out: IncuCyte Kuramochi RB-WT: IC50. On the procedure: IncuCyte® assay was used to measure the effect of disclosed compounds on cell proliferation. Fluorescent microscopy images of cells were taken immediately after compound treatment and 72 hours later. Image analysis software was used to obtain cell counts as a function of compound concentration. Kuramochi cells labeled with mApple-H2B were seeded on 384-well assay-ready plates. Plates were placed in an IncuCyte® (Sartorius) and scanned at 0 and 72 hours. IncuCyte® software was used to count the number of fluorescent nuclei in each well. The fold change in cell count from 0 to 72 hours in wells treated with increasing compounds concentrations (10 pts, 1/2 log dilution, 20 μM top concentration) was normalized to DMSO control wells. The normalized cell counts were fit with dose response curves and a […] was calculated.

Each structure is given as a SMILES string.

On to `C[C@@H](OCC1CCOCC1)[C@H](NC(=O)[C@@H]1CN(C(=O)c2cnn(Cc3ccc(C(F)(F)F)cc3)c2)CC12CN(C(=O)C1(C(F)(F)F)CC1)C2)C(=O)N1CCC(c2nccs2)CC1` [Example I-79, (S)—N-((2S,3R)-1-oxo-3-((tetrahydro-2H-pyran-4-yl)methoxy)-1-(4-(thiazol-2-yl)piperidin-1-yl)butan-2-yl)-6-(1-(4-(trifluoromethyl)benzyl)-1H-pyrazole-4-carbonyl)-2-(1-(trifluoromethyl)cyclopropane-1-carbonyl)-2,6-diazaspiro[3.4]octane-8-carboxamide], for which the IC50 at CDK2/Cyclin E1 is below 0.5 µM; with Kuramochi cells it was 0.5 to 5 µM.
Taken in the same sequence, the figures for `COC(=O)c1c(F)cc(C2CCN(C(=O)[C@@H](NC(=O)[C@@H]3CN(C(=O)c4cnn(Cc5ccc(C(F)(F)F)cc5)c4)CC34CN(C(=O)C3(C(F)(F)F)CC3)C4)[C@@H](C)OCC34CCC(CC3)OC4)CC2)cc1F` (stereo in doubt) [Example I-2] were below 0.5 µM and 0.5 to 5 µM.
Taken in the same sequence, the figures for `C[C@@H](OCC12CCC(CC1)OC2)[C@H](NC(=O)[C@@H]1CN(C(=O)c2cnn(Cc3ccc(C(F)(F)F)cc3)c2)CC12CN(C(=O)C1(C(F)(F)F)CC1)C2)C(=O)NCCC(=O)NS(C)(=O)=O` [Example I-73, (S)—N-((2S,3R)-3-((2-oxabicyclo[2.2.2]octan-4-yl)methoxy)-1-((3-(methylsulfonamido)-3-oxopropyl)amino)-1-oxobutan-2-yl)-6-(1-(4-(trifluoromethyl)benzyl)-1H-pyrazole-4-carbonyl)-2-(1-(trifluoromethyl)cyclopropane-1-carbonyl)-2,6-diazaspiro[3.4]octane-8-carboxamide] were 5 to 10 µM and above 20 µM.
For `C[C@@H](OCC1CCCCC1)[C@H](NC(=O)[C@@H]1CN(C(=O)c2cnn(Cc3ccccc3)c2)CC12CN(C(=O)[C@H]1CC1(C)C)C2)C(=O)NCCC(=O)NS(C)(=O)=O` [Example I-33, (S)-6-(1-benzyl-1H-pyrazole-4-carbonyl)-N-((2S,3R)-3-(cyclohexylmethoxy)-1-((3-(methylsulfonamido)-3-oxopropyl)amino)-1-oxobutan-2-yl)-2-((S)-2,2-dimethylcyclopropane-1-carbonyl)-2,6-diazaspiro[3.4]octane-8-carboxamide] the same measures were below 0.5 µM and above 20 µM.
On to `COC(=O)C(C)(C)Oc1ccc(C2CCN(C(=O)[C@@H](NC(=O)[C@@H]3CN(C(=O)c4cnn(Cc5ccc(C(F)(F)F)cc5)c4)CC34CN(C(=O)C3(C(F)(F)F)CC3)C4)[C@@H](C)OCC34CCC(CC3)OC4)CC2)cc1C(F)(F)F` (stereo in doubt) [Example I-5], for which the results for the IC50 at CDK2/Cyclin E1 and in the assay with Kuramochi cells were above 10 µM and above 20 µM, respectively.
Regarding `C[C@@H](OCC12CCC(CC1)OC2)[C@H](NC(=O)[C@@H]1CN(C(=O)c2cnn(Cc3ccc(C(F)(F)F)cc3)c2)CC12CN(C(=O)C1(C(F)(F)F)CC1)C2)C(=O)N1CCC(c2ccc(C(=O)O)nc2)CC1` [Example I-92, 5-(1-(O-((2-oxabicyclo[2.2.2]octan-4-yl)methyl)-N—((S)-6-(1-(4-(trifluoromethyl)benzyl)-1H-pyrazole-4-carbonyl)-2-(1-(trifluoromethyl)cyclopropane-1-carbonyl)-2,6-diazaspiro[3.4]octane-8-carbonyl)-L-threonyl)piperidin-4-yl)picolinic acid], the IC50 was below 0.5 µM on CDK2/Cyclin E1 and above 20 µM in the assay on Kuramochi cells.
Taken in the same sequence, the figures for `C[C@@H](OCC1CCCCC1)[C@H](NC(=O)[C@@H]1CN(C(=O)c2cnn(Cc3ccccc3)c2)CC12CN(C(=O)[C@H]1CC1(C)C)C2)C(=O)N1CCN(c2ccc(C(=O)O)cc2)CC1` [Example I-28] were below 0.5 µM and 0.5 to 5 µM.
Taken in the same sequence, the figures for `N#Cc1ccc(Cn2cc(C(=O)N3CC(C(=O)N[C@H](COCC45CCC(CC4)OC5)c4ccc(C(=O)O)cc4)C4(C3)CN(C(=O)C3(C(F)(F)F)CC3)C4)cn2)cc1` (stereo partly drawn) [Example I-19] were above 10 µM and above 20 µM.
For the compound `CC1(C)C[C@@H]1C(=O)N1CC2(CN(C(=O)c3cncs3)C[C@H]2C(=O)N2CCC[C@@H](N(CC(=O)O)CC3CCCCC3)C2)C1` [Example I-71], the IC50 on CDK2/Cyclin E1 was above 10 µM; in the assay on Kuramochi cells, above 20 µM.
Turning to `COc1ccc(S(=O)(=O)NC(=O)[C@@H](NC(=O)[C@@H]2CN(C(=O)c3cnn(Cc4ccccc4)c3)CC23CN(C(=O)[C@H]2CC2(C)C)C3)[C@@H](C)OCC2CCCCC2)cc1` [Example I-22], the values for the IC50 on CDK2/Cyclin E1 and with Kuramochi cells were below 0.5 µM and 0.5 to 5 µM, respectively.
Taken in the same sequence, the figures for `C[C@@H](OCC1CCOCC1)[C@H](NC(=O)[C@@H]1CN(C(=O)c2cnn(Cc3ccc(C(F)(F)F)cc3)c2)CC12CN(C(=O)C1(C(F)(F)F)CC1)C2)C(=O)N1CCC(c2ccc(C(=O)O)cc2)CC1` [I-64 1st, 4-(1-(O-((tetrahydro-2H-pyran-4-yl)methyl)-N—((S)-6-(1-(4-(trifluoromethyl)benzyl)-1H-pyrazole-4-carbonyl)-2-(1-(trifluoromethyl)cyclopropane-1-carbonyl)-2,6-diazaspiro[3.4]octane-8-carbonyl)-L-threonyl)piperidin-4-yl)benzoic acid] were below 0.5 µM and above 20 µM.
As for `C=CCOC(=O)N1CCC2(CC1)CCN(C(=O)[C@@H](NC(=O)[C@@H]1CN(C(=O)c3cnn(Cc4ccccc4C(=O)O)c3)CC13CN(C(=O)C1(C(F)(F)F)CC1)C3)[C@@H](C)OCC13CCC(CC1)OC3)CC2` [Example I-7, 2-((4-((S)-8-(((2S,3R)-3-((2-oxabicyclo[2.2.2]octan-4-yl)methoxy)-1-(9-((allyloxy)carbonyl)-3,9-diazaspiro[5.5]undecan-3-yl)-1-oxobutan-2-yl)carbamoyl)-2-(1-(trifluoromethyl)cyclopropane-1-carbonyl)-2,6-diazaspiro[3.4]octane-6-carbonyl)-1H-pyrazol-1-yl)methyl)benzoic acid], the IC50 on CDK2/Cyclin E1 is below 0.5 µM; with Kuramochi cells it was above 20 µM.
As for `C[C@@H](OCC1CCCCC1)[C@H](NC(=O)[C@@H]1CN(C(=O)c2cnn(Cc3ccccc3)c2)CC12CN(C(=O)[C@H]1CC1(C)C)C2)C(=O)N1CCCC[C@H]1C(=O)O` [Example I-36, (S)-1-(N—((S)-6-(1-benzyl-1H-pyrazole-4-carbonyl)-2-((S)-2,2-dimethylcyclopropane-1-carbonyl)-2,6-diazaspiro[3.4]octane-8-carbonyl)-O-(cyclohexylmethyl)-L-threonyl)piperidine-2-carboxylic acid], the IC50 on CDK2/Cyclin E1 is below 0.5 µM; with Kuramochi cells, above 20 µM.
For `C[C@@H](OCC12CCC(CC1)OC2)[C@H](NC(=O)[C@@H]1CN(C(=O)c2cnn(Cc3ccc(C(F)(F)F)cc3)c2)CC12CN(C(=O)C1(C(F)(F)F)CC1)C2)C(=O)N1CCC(c2nnn[nH]2)CC1` [Example I-100] the same measures were below 0.5 µM and above 20 µM.
Taken in the same sequence, the figures for `C[C@@H](OCC12CCC(CC1)OC2)[C@H](NC(=O)[C@@H]1CN(C(=O)c2cnn(Cc3ccccc3C(=O)OC(C)(C)C)c2)CC12CN(C(=O)C1(C(F)(F)F)CC1)C2)C(=O)NCCC1CCN(C(=O)OC(C)(C)C)CC1` [Example I-103] were below 0.5 µM and 0.5 to 5 µM.

These data come from patent publication US20260265262A1, “CDK2 INHIBITORS AND METHODS OF USING THE SAME” (Cedilla Therapeutics, Inc., priority 2022, published 2026).
